Among the data in DBAASP are MIC values, retold here.

Each structure is given as a SMILES string. In brackets after ≈: the same amount, converted by molar mass. Several values for one entry are separate records, joined by “and”; a condition that tells them apart may be missing. Equal values may be shown once. A value given as a limit tells only on which side of the number the result lay.

Among the test systems are Salmonella typhimurium; Bacillus subtilis; Streptococcus pyogenes; Escherichia coli; Proteus vulgaris; Pseudomonas aeruginosa; Acinetobacter baumannii; Enterococcus faecium; Klebsiella pneumoniae; Streptococcus pneumoniae.
Holding throughout (experiment): ≥ marks a high value that may be exact or a test limit, other limits are often not marked, values filed in µg/mL are converted to µM
Test [1] relates to Staphylococcus aureus ATCC BAA-1556.
Test [2] has as its system Staphylococcus aureus SAP 0017.
Test [3] concerns Salmonella enterica subsp. enterica serovar Typhimurium ATCC 14028.
The test system of test [4] is Bacillus cereus ATCC 11778.
Test [5] relates to Staphylococcus aureus ATCC 29213.
The test system of test [6] is Escherichia coli ATCC 25922.
In test [7] the test system is Klebsiella aerogenes ATCC 13048.
Test [8] concerns Staphylococcus aureus ATCC 700699.
The subject of test [9] is Pseudomonas aeruginosa ATCC 27853.
Test [10] concerns Staphylococcus aureus ATCC 33591.
Test [11] deals with Klebsiella pneumoniae ATCC 700603.
Test [12] has as its system Staphylococcus epidermidis.
The subject of test [13] is Staphylococcus aureus ATCC 43300.

The MIC is the least concentration at which growth counts as inhibited. Low readings indicate greater potency, high ones weaker potency. In test [1], `CC(C)C[C@H](NC(=O)[C@H](CC(C)C)NC(=O)[C@H](CC(C)C)NC(=O)[C@H](CCCCN)NC(=O)[C@H](CC(C)C)NC(=O)[C@@H](N)CC(C)C)C(=O)N[C@@H](CCCCN)C(N)=O` [LLKLLLK] came in with an MIC of no less than 100 µM.

As for `CC[C@H](C)[C@H](N)C(=O)N[C@@H](CC(C)C)C(=O)N[C@H](C(=O)N[C@@H](CCCN=C(N)N)C(=O)N[C@@H](Cc1c[nH]c2ccccc12)C(=O)N[C@H](C(=O)N[C@@H](CCCN=C(N)N)C(=O)N[C@@H](Cc1c[nH]c2ccccc12)C(=O)N[C@@H](CCCN=C(N)N)C(=O)N[C@H](C(=O)N[C@@H](CCC(N)=O)C(=O)N[C@@H](Cc1c[nH]c2ccccc12)C(N)=O)[C@@H](C)CC)[C@@H](C)CC)C(C)C` [ILVRWIRWRIQW], the MIC in test [2] is 2 µM and 4 µM.

Take `CC(C)C[C@H](NC(=O)[C@H](CC(C)C)NC(=O)[C@H](CCCCN)NC(=O)[C@H](CC(C)C)NC(=O)[C@H](CC(C)C)NC(=O)[C@H](CC(C)C)NC(=O)[C@@H](N)CCCCN)C(N)=O` [KLLLKLL]: the MIC in test [1] was no less than 100 µM.

`CC[C@H](C)[C@H](NC(=O)[C@H](Cc1c[nH]c2ccccc12)NC(=O)[C@H](CCCN=C(N)N)NC(=O)[C@@H](N)CCCN=C(N)N)C(=O)N[C@@H](CCCN=C(N)N)C(=O)N[C@@H](Cc1c[nH]c2ccccc12)C(=O)N[C@@H](CC(C)C)C(N)=O` [RRWIRWL] gave an MIC in test [1] of no less than 100 µM.

As to `CC[C@H](C)[C@H](N)C(=O)N[C@@H](CC(C)C)C(=O)NCC(=O)N[C@@H](CCCCN)C(=O)N[C@@H](C)C(=O)N[C@@H](Cc1c[nH]c2ccccc12)C(=O)N[C@@H](CCC(=O)O)C(=O)NCC(=O)N[C@@H](C)C(=O)N[C@@H](CCCCN)C(=O)N[C@@H](CO)C(=O)N[C@@H](CC(C)C)C(=O)N[C@@H](Cc1ccccc1)C(N)=O` [ILGKAWEGAKSLF], the minimal inhibitory concentration (MIC) in test [3] is greater than 70.4 µM; in [4], no less than 70.4 µM; in [5] it was greater than 70.4 µM; in test [6], greater than 70.4 µM; in test [7], no less than 70.4 µM.

As to `CC(C)C[C@H](NC(=O)[C@H](CC(C)C)NC(=O)[C@H](CC(C)C)NC(=O)[C@H](CCCCN)NC(=O)[C@H](CC(C)C)NC(=O)[C@H](CCCCN)NC(=O)[C@H](CC(C)C)NC(=O)[C@H](CC(C)C)NC(=O)[C@@H](N)CC(C)C)C(N)=O` [LLLKLKLLL], the minimal inhibitory concentration (MIC) in test [1] was no less than 100 µM.

In the case of `CC[C@H](C)[C@H](NC(=O)[C@H](CC(=O)O)NC(=O)[C@H](CCCCN)NC(=O)[C@H](C)NC(=O)[C@H](C)NC(=O)CNC(=O)[C@H](CCCCN)NC(=O)[C@H](CC(C)C)NC(=O)[C@@H](NC(=O)[C@H](CC(=O)O)NC(=O)[C@@H](NC(=O)[C@@H](NC(=O)CN)C(C)C)C(C)C)[C@@H](C)CC)C(=O)N[C@@H](C)C(=O)NCC(=O)N[C@@H](Cc1cnc[nH]1)C(=O)N[C@@H](C)C(=O)N[C@@H](CO)C(=O)N[C@@H](CCCCN)C(=O)N[C@H](C(=O)N[C@@H](CCSC)C(=O)N[C@@H](CC(N)=O)C(=O)N[C@@H](CCCCN)C(=O)N[C@@H](CC(C)C)C(N)=O)C(C)C` [GVVDILKGAAKDIAGHASKVMNKL], the MIC in test [8] was no less than 100 µM; in test [9] it was greater than 100 µM; in test [10], no less than 100 µM; in test [11], greater than 100 µM; in [5] it was greater than 100 µM; in test [6] it was greater than 100 µM.

For the molecule `CC(C)C[C@H](NC(=O)[C@H](CCCN=C(N)N)NC(=O)[C@@H]1CCCN1C(=O)[C@H](Cc1cnc[nH]1)NC(=O)[C@@H]1CCCN1C(=O)[C@@H]1CCCN1C(=O)[C@H](CCCN=C(N)N)NC(=O)[C@@H]1CCCN1C(=O)[C@@H]1CCCN1C(=O)[C@H](Cc1cnc[nH]1)NC(=O)[C@@H]1CCCN1C(=O)[C@@H]1CCCN1C(=O)[C@H](CCCN=C(N)N)NC(=O)[C@@H]1CCCN1)C(=O)O` [PRPPHPPRPPHPRL], the minimum inhibitory concentration (MIC) in the test with Salmonella typhimurium is 0.5 µM (≈ 0.825 µg/mL); against Bacillus subtilis, no less than 64 µM; in the test with Streptococcus pyogenes it was no less than 64 µM; against Escherichia coli it was 8 µM (≈ 13.2 µg/mL); in [12] it was no less than 64 µM; against Proteus vulgaris, no less than 64 µM. Moreover, the MIC against Pseudomonas aeruginosa worked out at 64 µM (≈ 106 µg/mL).

Consider `CC[C@H](C)[C@H](NC(=O)CNC(=O)[C@H](Cc1cnc[nH]1)NC(=O)CNC(=O)CN)C(=O)N[C@@H](CCCN=C(N)N)C(=O)N[C@@H](CCCN=C(N)N)C(=O)N[C@H](C(=O)N[C@H](C(=O)N[C@@H](CCCN=C(N)N)C(=O)N[C@@H](CCCCN)C(=O)N[C@H](C(=O)N[C@H](C(=O)N[C@@H](Cc1cnc[nH]1)C(=O)N[C@H](C(=O)N[C@H](C(=O)N[C@@H](CCCCN)C(=O)N[C@@H](CCCCN)C(=O)NCC(=O)NCC(=O)N[C@@H](CS)C(N)=O)[C@@H](C)CC)[C@@H](C)CC)[C@@H](C)CC)[C@@H](C)CC)[C@@H](C)CC)[C@@H](C)CC` [GGHGIRRIIRKIIHIIKKGGC], for which the MIC against Acinetobacter baumannii was 9.3 µM (≈ 21.6 µg/mL); in the test on Enterococcus faecium, 8 µM (≈ 18.6 µg/mL); in the test on Klebsiella pneumoniae, greater than 16 µM; against Streptococcus pneumoniae, 8 µM (≈ 18.6 µg/mL); in test [6], 3 µM (≈ 6.97 µg/mL); in the test on Pseudomonas aeruginosa it was 12 µM (≈ 27.9 µg/mL). The molecule also had a minimal inhibitory concentration (MIC) in test [13] of 4 µM (≈ 9.3 µg/mL).

`CC[C@H](C)[C@H](NC(=O)[C@H](CC(=O)O)NC(=O)[C@H](CCCCN)NC(=O)[C@H](C)NC(=O)[C@H](C)NC(=O)CNC(=O)[C@H](CCCCN)NC(=O)[C@H](CC(C)C)NC(=O)[C@@H](NC(=O)[C@H](CC(=O)O)NC(=O)[C@@H](NC(=O)[C@@H](NC(=O)CN)C(C)C)C(C)C)[C@@H](C)CC)C(=O)N[C@@H](C)C(=O)NCC(=O)N[C@@H](Cc1cnc[nH]1)C(=O)N[C@@H](CC(C)C)C(=O)N[C@@H](C)C(=O)N[C@@H](CO)C(=O)N[C@@H](CCCCN)C(=O)N[C@@H](C)C(=O)N[C@@H](CCSC)C(=O)N[C@@H](CC(N)=O)C(=O)N[C@@H](CCCCN)C(=O)N[C@@H](CC(C)C)C(N)=O` [GVVDILKGAAKDIAGHLASKAMNKL]: the MIC in test [8] was no less than 100 µM; in test [9], greater than 100 µM; in test [10], no less than 100 µM; in [11], greater than 100 µM; in test [5], greater than 100 µM; in test [6], greater than 100 µM.

Consider `CC[C@H](C)[C@H](NC(=O)[C@H](CC(=O)O)NC(=O)[C@H](C)NC(=O)[C@H](C)NC(=O)[C@H](C)NC(=O)CNC(=O)[C@H](CCCCN)NC(=O)[C@H](CC(C)C)NC(=O)[C@@H](NC(=O)[C@H](CC(=O)O)NC(=O)[C@@H](NC(=O)[C@@H](NC(=O)CN)C(C)C)C(C)C)[C@@H](C)CC)C(=O)N[C@@H](C)C(=O)NCC(=O)N[C@@H](Cc1cnc[nH]1)C(=O)N[C@@H](CC(C)C)C(=O)N[C@@H](C)C(=O)N[C@@H](CO)C(=O)N[C@@H](CCCCN)C(=O)N[C@H](C(=O)N[C@@H](CCSC)C(=O)N[C@@H](CC(N)=O)C(=O)N[C@@H](CCCCN)C(=O)N[C@@H](CC(C)C)C(N)=O)C(C)C` [GVVDILKGAAADIAGHLASKVMNKL], for which the minimal inhibitory concentration (MIC) was no less than 100 µM in test [8]; greater than 100 µM in test [9]; no less than 100 µM in test [10]; greater than 100 µM in test [11]; greater than 100 µM in test [5]; 100 µM (≈ 249 µg/mL) in test [6].

Take `CC[C@H](C)[C@H](NC(=O)[C@H](CC(=O)O)NC(=O)[C@@H](NC(=O)[C@@H](NC(=O)CN)C(C)C)C(C)C)C(=O)N[C@@H](CC(C)C)C(=O)N[C@@H](CCCCN)C(=O)NCC(=O)N[C@@H](C)C(=O)N[C@@H](C)C(=O)N[C@@H](CCCCN)C(=O)N[C@@H](CC(=O)O)C(=O)N[C@@H](C)C(=O)N[C@@H](C)C(=O)NCC(=O)N[C@@H](Cc1cnc[nH]1)C(=O)N[C@@H](CC(C)C)C(=O)N[C@@H](C)C(=O)N[C@@H](CO)C(=O)N[C@@H](CCCCN)C(=O)N[C@H](C(=O)N[C@@H](CCSC)C(=O)N[C@@H](CC(N)=O)C(=O)N[C@@H](CCCCN)C(=O)N[C@@H](CC(C)C)C(N)=O)C(C)C` [GVVDILKGAAKDAAGHLASKVMNKL]: the minimal inhibitory concentration (MIC) was no less than 100 µM in test [8]; greater than 100 µM in test [9]; no less than 100 µM in test [10]; greater than 100 µM in test [11]; greater than 100 µM in test [5]; greater than 100 µM in test [6].
